From PubChem BioAssay AID248 (DTP/NCI, 2004)
Where “and” joins values, the source holds several entries; their conditions need not be identical. Equal entries are not always repeated. Toxic doses and inconclusive results are not listed. Rule as the data show it: active = T/C of 150% or more; inactive = T/C below 125%.

System: L1210 leukemia ip in BDF1 mice, survival T/C
Assay: NCI In Vivo Anticancer Drug Screen. Data for tumor model L1210 Leukemia (intraperitoneal) in B6D2F1 (BDF1) mice
Conditions: endpoint: mean survival time, higher = longer survival
Method in brief: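 In this screen, tumor-bearing mice given compound are compared to those given vehicle, and their survival values are reported as a treated-to-control quotient.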

[1] = dose: 50.0 mg/kg/injection, schedule: Q01DX009 (ip), vehicle: Klucel (hydroxypropylcellulose) (HPC)
[2] = dose: 100.0 mg/kg/injection, schedule: Q01DX001 (ip), vehicle: Klucel (hydroxypropylcellulose) (HPC)
[3] = dose: 100.0 mg/kg/injection, schedule: Q04DX003 (ip), vehicle: Klucel (hydroxypropylcellulose) (HPC)
[4] = dose: 100.0 mg/kg/injection, schedule: Q01DX009 (ip), vehicle: Klucel (hydroxypropylcellulose) (HPC)
[5] = dose: 200.0 mg/kg/injection, schedule: Q01DX009 (ip), vehicle: Klucel (hydroxypropylcellulose) (HPC)
[6] = dose: 100.0 mg/kg/injection, schedule: Q01DX001 (ip), vehicle: saline with Tween-80

Measured: T/C

O=C(CCCN1CCC(O)(c2cccc(C(F)(F)F)c2)CC1)c1ccc(F)cc1
inactive: dose: 0.04 mg/kg/injection, schedule: Q03HX024 (ip), vehicle: Klucel (hydroxypropylcellulose) (HPC) 102 % of control | dose: 0.09 mg/kg/injection, schedule: Q03HX024 (ip), vehicle: Klucel (hydroxypropylcellulose) (HPC) 107 % of control | dose: 0.19 mg/kg/injection, schedule: Q03HX024 (ip), vehicle: Klucel (hydroxypropylcellulose) (HPC) 105 % of control | dose: 0.39 mg/kg/injection, schedule: Q03HX024 (ip), vehicle: Klucel (hydroxypropylcellulose) (HPC) 107 % of control | dose: 0.78 mg/kg/injection, schedule: Q03HX004 (ip), vehicle: Klucel (hydroxypropylcellulose) (HPC) 96 % of control | dose: 0.78 mg/kg/injection, schedule: Q03HX024 (ip), vehicle: Klucel (hydroxypropylcellulose) (HPC) 107 % of control | dose: 1.56 mg/kg/injection, schedule: Q01DX009 (ip), vehicle: Klucel (hydroxypropylcellulose) (HPC) 111 % of control | dose: 1.56 mg/kg/injection, schedule: Q03HX004 (ip), vehicle: Klucel (hydroxypropylcellulose) (HPC) 91 % of control | dose: 1.56 mg/kg/injection, schedule: Q03HX024 (ip), vehicle: Klucel (hydroxypropylcellulose) (HPC) 97 % of control | dose: 2.0 mg/kg/injection, schedule: Q01DX009 (ip), vehicle: Klucel (hydroxypropylcellulose) (HPC) 100 % of control | dose: 3.12 mg/kg/injection, schedule: Q01DX009 (ip), vehicle: Klucel (hydroxypropylcellulose) (HPC) 107 % of control and 122 % of control | dose: 3.12 mg/kg/injection, schedule: Q03HX024 (ip), vehicle: Klucel (hydroxypropylcellulose) (HPC) 100 % of control and 86 % of control | dose: 3.12 mg/kg/injection, schedule: Q04DX003 (ip), vehicle: Klucel (hydroxypropylcellulose) (HPC) 91 % of control and 101 % of control | dose: 4.0 mg/kg/injection, schedule: Q01DX009 (ip), vehicle: Klucel (hydroxypropylcellulose) (HPC) 92 % of control | dose: 6.25 mg/kg/injection, schedule: Q01DX001 (ip), vehicle: Klucel (hydroxypropylcellulose) (HPC) 106 % of control | dose: 6.25 mg/kg/injection, schedule: Q01DX009 (ip), vehicle: Klucel (hydroxypropylcellulose) (HPC) 110 % of control | dose: 6.25 mg/kg/injection, schedule: Q04DX003 (ip), vehicle: Klucel (hydroxypropylcellulose) (HPC) 100 % of control and 102 % of control and 108 % of control | dose: 12.5 mg/kg/injection, schedule: Q01DX001 (ip), vehicle: Klucel (hydroxypropylcellulose) (HPC) 106 % of control | dose: 12.5 mg/kg/injection, schedule: Q01DX009 (ip), vehicle: Klucel (hydroxypropylcellulose) (HPC) 121 % of control | dose: 12.5 mg/kg/injection, schedule: Q04DX003 (ip), vehicle: Klucel (hydroxypropylcellulose) (HPC) 94 % of control and 103 % of control | dose: 18.75 mg/kg/injection, schedule: Q01DX001 (ip), vehicle: Klucel (hydroxypropylcellulose) (HPC) 91 % of control | dose: 25.0 mg/kg/injection, schedule: Q01DX001 (ip), vehicle: Klucel (hydroxypropylcellulose) (HPC) 104 % of control and 119 % of control and 123 % of control | dose: 25.0 mg/kg/injection, schedule: Q01DX009 (ip), vehicle: Klucel (hydroxypropylcellulose) (HPC) 91 % of control | dose: 25.0 mg/kg/injection, schedule: Q04DX003 (ip), vehicle: Klucel (hydroxypropylcellulose) (HPC) 107 % of control and 117 % of control | dose: 37.5 mg/kg/injection, schedule: Q01DX001 (ip), vehicle: Klucel (hydroxypropylcellulose) (HPC) 103 % of control | dose: 50.0 mg/kg/injection, schedule: Q01DX001 (ip), vehicle: Klucel (hydroxypropylcellulose) (HPC) 123 % of control | [1] 92 % of control | dose: 50.0 mg/kg/injection, schedule: Q04DX003 (ip), vehicle: Klucel (hydroxypropylcellulose) (HPC) 97 % of control and 116 % of control | dose: 75.0 mg/kg/injection, schedule: Q01DX001 (ip), vehicle: Klucel (hydroxypropylcellulose) (HPC) 91 % of control | [2] 110 % of control and 115 % of control and 121 % of control | [3] 116 % of control | dose: 150.0 mg/kg/injection, schedule: Q01DX001 (ip), vehicle: Klucel (hydroxypropylcellulose) (HPC) 100 % of control

N#C/C(=C\c1ccco1)C1CCC([N+](=O)[O-])CC1 (stereo unspecified)
inactive: dose: 100.0 mg/kg/injection, schedule: Q04DX002 (ip), vehicle: Klucel (hydroxypropylcellulose) (HPC) 104 % of control | dose: 200.0 mg/kg/injection, schedule: Q04DX002 (ip), vehicle: Klucel (hydroxypropylcellulose) (HPC) 104 % of control | dose: 400.0 mg/kg/injection, schedule: Q04DX002 (ip), vehicle: Klucel (hydroxypropylcellulose) (HPC) 93 % of control

NC(=O)c1nnc(-c2ccccn2)[nH]c1=O
inactive: [2] 93 % of control

O=C(Nc1ccc(CCO)cc1)Nc1ccccc1C(F)(F)F
inactive: dose: 100.0 mg/kg/injection, schedule: Q01DX009 (ip), vehicle: saline with Tween-80 97 % of control | dose: 200.0 mg/kg/injection, schedule: Q01DX009 (ip), vehicle: saline with Tween-80 90 % of control | dose: 400.0 mg/kg/injection, schedule: Q01DX009 (ip), vehicle: saline with Tween-80 92 % of control

CN(C)n1cc(C#N)c(=O)[nH]c1=O
inactive: [1] 90 % of control | [4] 90 % of control | [3] 100 % of control | [5] 100 % of control | dose: 200.0 mg/kg/injection, schedule: Q04DX003 (ip), vehicle: Klucel (hydroxypropylcellulose) (HPC) 97 % of control

CCC(Cl)COP(=O)(OC(c1ccc(Cl)c(Cl)c1)P(=O)(OCC(Cl)CC)OCC(Cl)CC)C(CC)CCl (stereo unspecified)
inactive: [6] 104 % of control | dose: 200.0 mg/kg/injection, schedule: Q01DX001 (ip), vehicle: saline with Tween-80 95 % of control | dose: 400.0 mg/kg/injection, schedule: Q01DX001 (ip), vehicle: saline with Tween-80 101 % of control

O=C1C=CC(=O)N1c1ccc(F)cc1 (tested in a mixture with another compound)
inactive: dose: 100.0 mg/kg/injection, schedule: Q04DX003 (ip), vehicle: acetone 86 % of control | dose: 100.0 mg/kg/injection, schedule: Q04DX003 (ip), vehicle: other 97 % of control | dose: 200.0 mg/kg/injection, schedule: Q04DX003 (ip), vehicle: acetone 86 % of control | dose: 200.0 mg/kg/injection, schedule: Q04DX003 (ip), vehicle: other 86 % of control | dose: 400.0 mg/kg/injection, schedule: Q04DX003 (ip), vehicle: other 87 % of control and 95 % of control

NCc1ccc(OCc2nc(N)nc(N)c2-c2ccc(Cl)cc2)cc1
inactive: dose: 25.0 mg/kg/injection, schedule: Q01DX001 (ip), vehicle: saline with Tween-80 97 % of control | dose: 50.0 mg/kg/injection, schedule: Q01DX001 (ip), vehicle: saline with Tween-80 87 % of control | [6] 95 % of control and 96 % of control

CC(C(O)c1ccc(F)cc1)C(O)(C(F)(F)F)C(F)(F)F (stereo unspecified)
inactive: dose: 100.0 mg/kg/injection, schedule: Q04DX003 (ip), vehicle: saline with Tween-80 97 % of control | dose: 200.0 mg/kg/injection, schedule: Q04DX003 (ip), vehicle: saline with Tween-80 98 % of control | dose: 400.0 mg/kg/injection, schedule: Q04DX003 (ip), vehicle: saline with Tween-80 86 % of control

OC/C(=C/c1ccccc1)c1ccccc1
inactive: [1] 98 % of control | dose: 75.0 mg/kg/injection, schedule: Q04DX003 (ip), vehicle: Klucel (hydroxypropylcellulose) (HPC) 100 % of control | [4] 91 % of control | dose: 150.0 mg/kg/injection, schedule: Q04DX003 (ip), vehicle: Klucel (hydroxypropylcellulose) (HPC) 98 % of control | [5] 93 % of control | dose: 300.0 mg/kg/injection, schedule: Q04DX003 (ip), vehicle: Klucel (hydroxypropylcellulose) (HPC) 96 % of control

Nc1ccc(CS(=O)(=O)O)cc1
inactive: dose: 100.0 mg/kg/injection, schedule: Q01DX009 (ip), vehicle: saline 112 % of control | dose: 200.0 mg/kg/injection, schedule: Q01DX009 (ip), vehicle: saline 101 % of control | dose: 400.0 mg/kg/injection, schedule: Q01DX009 (ip), vehicle: saline 101 % of control

CC(C#N)Oc1cccc2ccccc12 (stereo unspecified)
inactive: dose: 100.0 mg/kg/injection, schedule: Q01DX009 (ip), vehicle: DMSO 87 % of control | dose: 100.0 mg/kg/injection, schedule: Q04DX003 (ip), vehicle: DMSO 92 % of control | dose: 200.0 mg/kg/injection, schedule: Q01DX009 (ip), vehicle: DMSO 87 % of control | dose: 200.0 mg/kg/injection, schedule: Q04DX003 (ip), vehicle: DMSO 87 % of control | dose: 400.0 mg/kg/injection, schedule: Q04DX003 (ip), vehicle: DMSO 103 % of control

COc1ccccc1CN1CCCN(Cc2ccccc2OC)C1c1cc(Cl)ccc1O
inactive: dose: 50.0 mg/kg/injection, schedule: Q01DX001 (ip), vehicle: saline 101 % of control | dose: 100.0 mg/kg/injection, schedule: Q01DX001 (ip), vehicle: saline 95 % of control | dose: 200.0 mg/kg/injection, schedule: Q01DX001 (ip), vehicle: saline 97 % of control | dose: 400.0 mg/kg/injection, schedule: Q01DX001 (ip), vehicle: saline 101 % of control
